Experimental data reported in PubChem BioAssay AID270 (DTP/NCI, 2004).
Inconclusive results are not listed.

System: BDF1 mice, s.c. Lewis lung carcinoma, T/C %
Assay: NCI In Vivo Anticancer Drug Screen. Data for tumor model Lewis Lung Carcinoma (subcutaneous) in B6D2F1 (BDF1) mice
Summary of the method: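 Transplanted tumors grown in mice; compound vs vehicle dosing; endpoint survival or tumor size; ratio T/C.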

Question: For `CC(=O)OC(C)(C)/C=C/C(=O)[C@](C)(O)[C@H]1[C@H](O)C[C@@]2(C)[C@@H]3CC=C4[C@@H](C[C@H](O)C(=O)C4(C)C)[C@]3(CO)C(=O)C[C@]12C`, which T/C (endpoint: mean tumor weight, dose: 0.57 mg/kg/injection, schedule: Q01DX011 (ip), vehicle: saline, higher = larger tumour) is on record?
Answer: 93 % of control

Question: Which T/C (endpoint: mean tumor weight, dose: 1.25 mg/kg/injection, schedule: Q01DX011 (ip), vehicle: saline, higher = larger tumour) does the source give for `CC[C@H]1CN2CCc3cc(OC)c(OC)cc3[C@@H]2C[C@@H]1C[C@H]1NCCc2cc(O)c(OC)cc21` here?
Answer: 94 % of control

Question: And the T/C (endpoint: mean tumor weight, dose: 2.5 mg/kg/injection, schedule: Q01DX011 (ip), vehicle: saline, higher = larger tumour)?
Answer: 55 % of control

Question: And the T/C (endpoint: mean tumor weight, dose: 5.0 mg/kg/injection, schedule: Q01DX011 (ip), vehicle: saline, higher = larger tumour)?
Answer: 37 % of control

Question: How did the T/C (endpoint: mean tumor weight, dose: 133.0 mg/kg/injection, schedule: Q01DX011 (ip), vehicle: saline, higher = larger tumour) turn out when `O=CNCCO` was run?
Answer: 69 % of control

Question: What about the T/C (endpoint: mean tumor weight, dose: 200.0 mg/kg/injection, schedule: Q01DX011 (ip), vehicle: saline, higher = larger tumour) of the same compound?
Answer: 79 % of control

Question: And the T/C (endpoint: mean tumor weight, dose: 300.0 mg/kg/injection, schedule: Q01DX011 (ip), vehicle: saline, higher = larger tumour)?
Answer: 48 % of control

Question: And the T/C (endpoint: mean tumor weight, dose: 450.0 mg/kg/injection, schedule: Q01DX011 (ip), vehicle: saline, higher = larger tumour)?
Answer: 54 % of control

Question: What about the T/C (endpoint: mean tumor weight, dose: 750.0 mg/kg/injection, schedule: Q01DX011 (ip), vehicle: saline, higher = larger tumour) of the same compound?
Answer: 81 % of control

Question: Which results are given for `Cc1c(N)nc(C(CC(N)=O)NCC(N)C(N)=O)nc1C(=O)NC(C(=O)NC(C)C(O)C(C)C(=O)NC(C(=O)NCCc1nc(-c2nc(C(=O)NCCC[S+](C)C)cs2)cs1)C(C)O)C(OC1OC(CO)C(O)C(O)C1OC1OC(CO)C(O)C(OC(N)=O)C1O)c1cnc[nH]1` (stereo not given)?
Answer: T/C (endpoint: median survival time, dose: 0.5 mg/kg/injection, schedule: Q01DX009 (ip), vehicle: Klucel (hydroxypropylcellulose) (HPC), higher = longer survival): 116 % of control; T/C (endpoint: median survival time, dose: 1.0 mg/kg/injection, schedule: Q01DX009 (ip), vehicle: Klucel (hydroxypropylcellulose) (HPC), higher = longer survival): 121 % of control; T/C (endpoint: median survival time, dose: 2.0 mg/kg/injection, schedule: Q01DX009 (ip), vehicle: Klucel (hydroxypropylcellulose) (HPC), higher = longer survival): 121 % of control; T/C (endpoint: median survival time, dose: 4.0 mg/kg/injection, schedule: Q01DX009 (ip), vehicle: Klucel (hydroxypropylcellulose) (HPC), higher = longer survival): 121 % of control

Question: What does the source list for `O=C(CCCN1CCC(O)(c2cccc(C(F)(F)F)c2)CC1)c1ccc(F)cc1`?
Answer: T/C (endpoint: median survival time, dose: 25.0 mg/kg/injection, schedule: Q04DX003 (ip), vehicle: saline with Tween-80, higher = longer survival): 92 % of control; T/C (endpoint: median survival time, dose: 50.0 mg/kg/injection, schedule: Q04DX003 (ip), vehicle: saline with Tween-80, higher = longer survival): 121 % of control

Question: Which T/C (endpoint: median survival time, dose: 25.0 mg/kg/injection, schedule: Q01DX009 (ip), vehicle: saline with Tween-80, higher = longer survival) does the source give for `N#Cc1ncc(C(Cl)Cl)nc1Cl` here?
Answer: 113 % of control

Question: And the T/C (endpoint: median survival time, dose: 50.0 mg/kg/injection, schedule: Q01DX009 (ip), vehicle: saline with Tween-80, higher = longer survival)?
Answer: 98 % of control

Question: How did the T/C (endpoint: median survival time, dose: 25.0 mg/kg/injection, schedule: Q01DX009 (ip), vehicle: Klucel (hydroxypropylcellulose) (HPC), higher = longer survival) turn out when `CC(=O)NNC(=O)c1ccccn1` was run?
Answer: 112 % of control

Question: And the T/C (endpoint: median survival time, dose: 100.0 mg/kg/injection, schedule: Q01DX009 (ip), vehicle: Klucel (hydroxypropylcellulose) (HPC), higher = longer survival)?
Answer: 102 % of control

Question: What about the T/C (endpoint: median survival time, dose: 200.0 mg/kg/injection, schedule: Q01DX009 (ip), vehicle: Klucel (hydroxypropylcellulose) (HPC), higher = longer survival) of the same compound?
Answer: 115 % of control
